Source: US7417036B2, “Crystal form of adefovir dipivoxil and its preparation” (Tianjin Kinsly Pharmaceutical Co. Ltd., priority 2002, dated 2008)
Several values for one entry are separate records, joined by “and”; a condition that tells them apart may be missing. Identical values can stand only once.

Assay: Kinetic studies of the plasma concentration in animals with different crystalline forms of AD (oral, monkeys; adefovir measured in serum by HPLC)
Assay type: in vivo, Macaques
Settings: 20 mg/kg, 20 mg/kg
Experimental: The experiment was carried out by orally administering to monkeys the drugs in order to investigate the in vivo absorption of two crystalline forms of AD: the novel crystalline AD of the present invention produced by Tianjin Kinsly pharmaceutical R & D Co. Ltd. and crystalline form I of AD prepared according to the method of GILEAD SCIENCES INC. The experiment provides useful clinical references for the application of novel crystalline AD.
Tablets of novel crystalline form of AD, white, each of which contains 10 mg of adefovir, Tianjin Kinsly pharmaceutical R&D Co. Ltd., batch number 020320.
Tablets of AD crystalline form I, white, each of which contains 10 mg of adefovir, Tianjin Kinsly pharmaceutical R&D Co. Ltd., batch number 020225.
Macaques, weighing from 5 kg to 8 kg (certificate No: 2001-03, approved by Beijing Forestry Administration in the document of [2001] 83) were provided by Xie'er Animal Health Caring Science and Technology Co. Ltd (Beijing, P. R. China).
As the pro-drug of adefovir, AD is the bis-pivaloyloxymethyl ester of adefovir, which increases the in vivo bioavailability of orally administered adefovir. AD can be rapidly metabolized into PMEA, rendering it undetectable in blood. Thus the concentration of its parent compound was measured.
Mobile phase: 0.2% phosphoric acid-methanol-B7 (97:3:0.5) degassed and filtrated through 0.45 μm milipore filter.
Stationary phase: C18-column (4.6×250 mm) packed with 5μ fillers, Tianjin Tianhe Chromatogram Inc, the column temperature from 18° C. to 22° C.
Detection: the UV detection wavelength λ=260 nm (0.01AUFS)
A given volume of serum was taken and an equal volume of 10% trichloroacetic acid was added. The mixture was shaken thoroughly and kept still for more than 30 min to precipitate the proteins, then centrifuged at 10000 rpm for 2 min. The precipitates were separated and 30 μL of the supernat was removed for injection.
The experiment was started one week after intestinal worms were dispelled from the animals. Eight animals were randomly assigned into two groups, each consisting of four animals. The animals were fasted for 12 h and were orally administered the novel crystalline form of AD for one group or crystalline form I of AD for another group at a dose of 20 mg/kg together with 200 ml of water. 2 hours after administration, the animals were fed in a fixed quantity. 2.0 ml samples of whole blood were collected from the elbow veins before administration and 10, 20, 30, 45 min and 1, 2, 4, 6, 8, 12, and 24 h after administration. The serum was separated and freeze-stored for measurement. A cross-experiment was done similarly 2 weeks later.
The pharmacokinetic parameters were calculated based on the plasma concentrations at different time points. The time to peak concentration (Tpeak) and the maximum concentration (Cmax) used the measured value. The terminal phase elimination rate constant (Ke) was obtained by fitting the linear section of the curve of logarithm of the plasma concentration of drug in terminal phase versus time and the terminal phase clearance half life time (T1/2) was calculated by dividing 0.693 by Ke. AUC0-t was calculated according to the trapezoid rule.
Apparent volume of distribution (Vd)=dosage/(AUCXKe);
Total Clearance (CL)=dosage/AUC.
Comparison of the data of the two crystalline form: Data of Cmax, Ke, T1/2 and AUC0-t were statistically processed by t test, while Tpeak was processed by non-parametric test. In addition, Comparison of bio-equivalence was carried out based on Cmax and AUC0-t by using two one-sided t test.
Eight macaques were assigned into two groups, group for the novel crystalline form and the group for crystalline form I. The animals were administered according to an open randomized crossover scheme. Afterward, adefovir concentrations in serum were measured at the predetermined time points. […]

[1] = adefovir, oral 20 mg/kg, macaques, average of 8 animals (ASD row)
[2] = adefovir, oral 20 mg/kg, macaques, average of 8 animals
[3] = adefovir, oral 20 mg/kg, macaques, individual animal No. 1-8

With `CC(C)(C)C(=O)OCOP(=O)(COCCn1cnc2c(N)ncnc21)OCOC(=O)C(C)(C)C` [novel crystalline form] the “Adefovir concentrations in serum (Plasma concentrations versus time), average” value (0.167 h after oral administration, macaques, average of 8 animals (ASD row)) was 74.3 ng/mL, the “Adefovir concentrations in serum (Plasma concentrations versus time)” value (0.167 h after oral administration, macaques, individual animal No. 1-8) was 51.8 ng/mL and 105.0 ng/mL and 103.9 ng/mL and 78.3 ng/mL and 64.9 ng/mL and 53.2 ng/mL and 60.0 ng/mL and 76.9 ng/mL and the “Adefovir concentrations in serum (Plasma concentrations versus time), average” value (0.333 h after oral administration, macaques, average of 8 animals (ASD row)) was 201.4 ng/mL. For the same molecule, the “Adefovir concentrations in serum (Plasma concentrations versus time)” value (0.333 h after oral administration, macaques, individual animal No. 1-8) was 186.7 ng/mL and 258.5 ng/mL and 248.8 ng/mL and 190.1 ng/mL and 125.9 ng/mL and 154.1 ng/mL and 176.3 ng/mL and 270.7 ng/mL, the “Adefovir concentrations in serum (Plasma concentrations versus time), average” value (0.5 h after oral administration, macaques, average of 8 animals (ASD row)) was 507.4 ng/mL and the “Adefovir concentrations in serum (Plasma concentrations versus time)” value (0.5 h after oral administration, macaques, individual animal No. 1-8) was 952.4 ng/mL and 403.1 ng/mL and 398.3 ng/mL and 541.8 ng/mL and 396.0 ng/mL and 448.9 ng/mL and 529.4 ng/mL and 389.5 ng/mL. For the same molecule, the “Adefovir concentrations in serum (Plasma concentrations versus time), average” value (0.75 h after oral administration, macaques, average of 8 animals (ASD row)) was 392.0 ng/mL, the “Adefovir concentrations in serum (Plasma concentrations versus time)” value (0.75 h after oral administration, macaques, individual animal No. 1-8) was 507.6 ng/mL and 306.8 ng/mL and 538.7 ng/mL and 360.6 ng/mL and 278.8 ng/mL and 195.6 ng/mL and 393.7 ng/mL and 55.0 ng/mL and the “Adefovir concentrations in serum (Plasma concentrations versus time), average” value (1 h after oral administration, macaques, average of 8 animals (ASD row)) was 238.8 ng/mL. For the same molecule, the “Adefovir concentrations in serum (Plasma concentrations versus time)” value (1 h after oral administration, macaques, individual animal No. 1-8) was 260.3 ng/mL and 231.8 ng/mL and 374.7 ng/mL and 269.4 ng/mL and 233.5 ng/mL and 132.7 ng/mL and 273.4 ng/mL, the “Adefovir concentrations in serum (Plasma concentrations versus time), average” value (2 h after oral administration, macaques, average of 8 animals (ASD row)) was 199.3 ng/mL and the “Adefovir concentrations in serum (Plasma concentrations versus time)” value (2 h after oral administration, macaques, individual animal No. 1-8) was 221.6 ng/ml and 196.1 ng/ml (2×) and 241.4 ng/ml and 117.7 ng/ml and 105.3 ng/ml and 260.3 ng/ml. For the same molecule, the “Adefovir concentrations in serum (Plasma concentrations versus time), average” value (4 h after oral administration, macaques, average of 8 animals (ASD row)) was 157.3 ng/mL, the “Adefovir concentrations in serum (Plasma concentrations versus time)” value (4 h after oral administration, macaques, individual animal No. 1-8) was 205.1 ng/mL and 140.9 ng/mL and 184.8 ng/mL and 198.9 ng/mL and 175.8 ng/mL and 85.0 ng/mL and 77.2 ng/mL and 191.0 ng/mL and the “Adefovir concentrations in serum (Plasma concentrations versus time), average” value (6 h after oral administration, macaques, average of 8 animals (ASD row)) was 119.7 ng/mL. For the same molecule, the “Adefovir concentrations in serum (Plasma concentrations versus time)” value (6 h after oral administration, macaques, individual animal No. 1-8) was 177.0 ng/mL and 114.5 ng/mL and 95.2 ng/mL and 141.2 ng/mL and 141.3 ng/mL and 85.9 ng/mL and 57.3 ng/mL and 145.3 ng/mL, the “Adefovir concentrations in serum (Plasma concentrations versus time), average” value (8 h after oral administration, macaques, average of 8 animals (ASD row)) was 102.7 ng/mL and the “Adefovir concentrations in serum (Plasma concentrations versus time)” value (8 h after oral administration, macaques, individual animal No. 1-8) was 158.9 ng/mL and 96.9 ng/mL and 112.0 ng/mL and 89.4 ng/mL and 110.7 ng/mL and 79.0 ng/mL and 55.6 ng/mL and 119.2 ng/mL. For the same molecule, the “Adefovir concentrations in serum (Plasma concentrations versus time), average” value (12 h after oral administration, macaques, average of 8 animals (ASD row)) was 70.3 ng/mL, the “Adefovir concentrations in serum (Plasma concentrations versus time)” value (12 h after oral administration, macaques, individual animal No. 1-8) was 112.6 ng/mL and 82.1 ng/mL and 46.1 ng/mL and 64.5 ng/mL and 44.8 ng/mL and 59.4 ng/mL and 80.5 ng/mL and 72.2 ng/mL and the “Adefovir concentrations in serum (Plasma concentrations versus time), average” value (24 h after oral administration, macaques, average of 8 animals (ASD row)) was 51.7 ng/mL. For the same molecule, the “Adefovir concentrations in serum (Plasma concentrations versus time)” value (24 h after oral administration, macaques, individual animal No. 1-8) was 99.3 ng/mL and 76.3 ng/mL and 28.3 ng/mL and 53.1 ng/mL and 36.6 ng/mL and 41.6 ng/mL and 59.4 ng/mL and 19.2 ng/mL, the Vd (adefovir apparent volume of distribution, oral 20 mg/kg, macaques, individual animal No. 1-8) was 147.5 L and 211.8 L and 89.1 L and 115.1 L and 112.4 L and 265.9 L and 224.6 L and 67.1 L and the “CL, average” value [1] was 8601.4 mL/h. For the same molecule, the “Ke, average” value [1] was 0.066 L/h, the “T1/2, average” value [1] was 12.5 h and the “Tpeak, average” value [1] was 0.56 h. For the same molecule, the “Vd, average” value [1] was 154.2 L, the “AUC0-t, average” value [2] was 2426.4 ng·h/mL and the “Cmax, average” value [2] was 545.7 ng/mL. For the same molecule, the “AUC0-t, average” value (adefovir, oral 20 mg/kg, macaques, average of 8 animals, listed as Novel form) was 2426 ng·h/mL, the AUC0-t [3] was 3593.4 ng·h/mL and 2567.8 ng·h/mL and 2318.3 ng·h/mL and 2554.7 ng·h/mL and 2162.8 ng·h/mL and 1735.9 ng·h/mL and 1921.2 ng·h/mL and 2556.8 ng·h/mL and the Cmax [3] was 403.1 ng/mL and 538.7 ng/mL and 541.8 ng/mL and 396.3 ng/mL and 448.9 ng/mL and 529.4 ng/mL and 555.0 ng/mL. The T1/2 [3] was 18.4 h and 18.8 h and 7.2 h and 10.2 h and 8.4 h and 16.0 h and 14.9 h and 5.9 h, the Tpeak [3] was 0.50 h (6×) and 0.75 h (2×) and the Cmax (adefovir, oral 20 mg/kg, macaques, individual animal No. 1-8, listed as Novel form) was 952.4 ng/mL and 396.2 ng/mL and 448.8 ng/mL. For the same molecule, the “average AUCO-T” value (adefovir, oral 20 mg/kg) was 2426.37 ng·h/mL, the “average Tpeak” value (adefovir, oral 20 mg/kg) was 0.56 h and the “average apparent volume of distribution (Vc)” value (adefovir, oral 20 mg/kg) was 19.74 L. The “average elimination half-life time” value (adefovir, oral 20 mg/kg) was 12.5 h and the average peak concentration (adefovir, oral 20 mg/kg) was 545.69 ng/mL.
